Patent US20240082238A1, “COMPOSITIONS AND METHODS FOR TREATING CANCER” (UNIVERSITY OF IOWA RESEARCH FOUNDATION, priority 2021, published 2024)
Values joined by “and” are separate entries in the source; they are usually repeats but may differ in a detail not shown here. Identical values can stand only once.

Legend:
tubulin = test: Fluorescence-based tubulin polymerization assay; assay type: biochemical; conditions: 3 μM
Description: Tubulin polymerization assay. Microtubules are one of the major cytoskeleton components in the cells, and they play an essential role in the spindle formation generated by α and β tubulin polymerization. Agents targeting microtubules function through two different mechanisms. To elaborate, several compounds like taxanes (e.g., PTX) promote the assembly of microtubules and are known to stabilize the microtubes whereas other compounds such as vinca alkaloid and colchicine are known to interrupt the spindle formation via inhibiting the tubulin polymerization; thereby, destabilize the microtubules. The result of both scenarios is metaphase arrest which induces apoptosis. To test the tubulin activity, a fluorescence-based tubulin polymerization assay (Cat. No. BK011P, Cytoskeleton Inc., Denver, CO) was performed according to the manufacturer's instructions. Briefly, stock solutions of PTX and CIP2b (in DMSO) were diluted with UltraPure™ water to make a final concentration of 3 μM. […] Before starting the experiment, the 96-well plate and fluorimeter (SpectraMax M5 Microplate Reader) were pre-warmed to 37° C. […] Samples and tubulin were added to a 96-well plate, and the plate was inserted into the plate reader. Kinetic measurements started immediately, and data were collected and analyzed.

caspase 3 = test: Caspase multiplex activity assay, caspase 3; assay type: cell-based, human; conditions: 72 h; PTX 5, 10 nM; CIP2b 10, 25, 50 μM
Description: (§1) Apoptosis and caspase activity. The expression of caspase 3, 8, and 9 was measured using Multiplex Activity Assay Fluorometric Kit (Cat. No. ab219915, Abcam). Briefly, Hec50co cells were plated in 96-well plates at a density of 3000 per well in 100 μL of the complete medium and incubated for 24 hours. After incubation, the medium was removed, and different concentrations either in single or combination of treatments were added (PTX 5 and 10 nM; CIP2b 10, 25, and 50 μM). Cells with treatments were incubated for 24 or 72 hours. Then, the caspase kit reagents were added to the cells and incubated at room temperature for 60 minutes. Fluorescence intensity (at excitation/emission values of 535/620 nm, 490/525 nm, and 370/450 nm for caspase 3, 8, and 9, respectively) was then measured using a SpectraMax M5 microplate reader (Molecular Devices).

Hec50co cells = test: Cell cycle assay (PI flow cytometry); assay type: cell-based, human; conditions: 24 h
Description: Cell Cycle assay. Hec50co cells were seeded at […] cells per well in 6-well plates for 48 h in complete medium. The medium was then removed and replaced with PTX (1, 5, and 10 nM), CIP2b (10 μM), combinations of PTX with CIP2b, or with a fresh complete medium. Cells were incubated with the treatments for 24 h, then the medium was removed, and the cells were washed twice with Dulbecco's Phosphate-Buffered Saline (DPBS 1×, ThermoFisher Scientific), trypsinized (0.4 mL/well), and collected by centrifugation (230 xg, 5 min). Cells were then fixed using 70% ethanol stored at 4° C. for 30 min, then incubated with 100 μg/mL RNase A in 2% v/v NP-40 Surfact-Amps® solution (0.5 mL/sample) for 30 min at 37° C. Then, PI (50 μg/mL, 0.5 mL/sample) was added prior to analysis by flow cytometry (FACScan, BD Biosciences) using CellQuest software (Ver. 3.3). The data were further analyzed by ModFit LT (Ver. 5.0) to calculate the percent of cells in each phase of the cell cycle (i.e., G0/G1, S, G2/M).
In vitro activity of CIP2b NPs. […] An equivalent quantity of blank NPs was also tested to account for the effect of the PLGA NPs alone without CIP2b. […] An equivalent quantity of blank NPs was also added, either alone or with PTX-OG. Samples were then analyzed using a flow cytometer, as described above.

human Topo IIα = molecular target: T1, human Topo IIα (Homo sapiens, UniProt P11388); test: Topoisomerase II inhibition assay (plasmid-based); assay type: biochemical; conditions: drug final concentration 100 μM; read-out: percentage of Topo II inhibition
T1 construct: purchased TopoGEN Inc. TG1001-1A
Description: Topoisomerase II inhibition assay. A plasmid-based Topo II assay (Cat. No. TG1001-1A, TopoGEN Inc., Buena Vista, CO) was performed according to the manufacturer's instructions. In this experiment, 1 μL of tested compounds (PTX, CIP, CIP2b, ETO) at a concentration of 2 mM was mixed with 4 μL of the reaction buffer (mixture of buffer A (0.5 M Tris-HCl (pH 8), 1.50 M NaCl, 100 mM MgCl2, 5 mM Dithiothreitol, 300 μg BSA/mL) and buffer B (10× ATP Buffer), and deionized water was added to make 18 μL solution. This was followed by adding 1 μL of catenated DNA and 1 μL of human Topo IIα (8 U/μL) (drug final concentration was 100 μM). Additionally, decatenated DNA (De-CT DNA) and catenated DNA (CT DNA)±Topo II were used as a control (i.e., not containing drugs). Moreover, relaxed DNA was added as another control in this assay. Similar to Topo I assay, samples were then incubated on a heating block set at 37° C. for 30 minutes. Then, the reaction was stopped by the addition of a 5× stop buffer. Samples were then loaded directly into the wells of a 1% agarose gel containing 1 μg/mL ethidium bromide. The gel was run at 150 V until the dye front had traveled approximately 5 cm (run time was approximately 2 h). The gel was then washed with deionized water for 30 minutes before imaging. The image was taken using an Invitrogen iBright CL1500 Imaging System. The intensity of the final bands in the gel was quantified using ImageJ, and the results are expressed as the percentage of Topo II inhibition.

caspase 9 = test: Caspase multiplex activity assay, caspase 9; assay type: cell-based, human; conditions: 24 h
Description: as §1

T1 sequence (P11388 whole entry): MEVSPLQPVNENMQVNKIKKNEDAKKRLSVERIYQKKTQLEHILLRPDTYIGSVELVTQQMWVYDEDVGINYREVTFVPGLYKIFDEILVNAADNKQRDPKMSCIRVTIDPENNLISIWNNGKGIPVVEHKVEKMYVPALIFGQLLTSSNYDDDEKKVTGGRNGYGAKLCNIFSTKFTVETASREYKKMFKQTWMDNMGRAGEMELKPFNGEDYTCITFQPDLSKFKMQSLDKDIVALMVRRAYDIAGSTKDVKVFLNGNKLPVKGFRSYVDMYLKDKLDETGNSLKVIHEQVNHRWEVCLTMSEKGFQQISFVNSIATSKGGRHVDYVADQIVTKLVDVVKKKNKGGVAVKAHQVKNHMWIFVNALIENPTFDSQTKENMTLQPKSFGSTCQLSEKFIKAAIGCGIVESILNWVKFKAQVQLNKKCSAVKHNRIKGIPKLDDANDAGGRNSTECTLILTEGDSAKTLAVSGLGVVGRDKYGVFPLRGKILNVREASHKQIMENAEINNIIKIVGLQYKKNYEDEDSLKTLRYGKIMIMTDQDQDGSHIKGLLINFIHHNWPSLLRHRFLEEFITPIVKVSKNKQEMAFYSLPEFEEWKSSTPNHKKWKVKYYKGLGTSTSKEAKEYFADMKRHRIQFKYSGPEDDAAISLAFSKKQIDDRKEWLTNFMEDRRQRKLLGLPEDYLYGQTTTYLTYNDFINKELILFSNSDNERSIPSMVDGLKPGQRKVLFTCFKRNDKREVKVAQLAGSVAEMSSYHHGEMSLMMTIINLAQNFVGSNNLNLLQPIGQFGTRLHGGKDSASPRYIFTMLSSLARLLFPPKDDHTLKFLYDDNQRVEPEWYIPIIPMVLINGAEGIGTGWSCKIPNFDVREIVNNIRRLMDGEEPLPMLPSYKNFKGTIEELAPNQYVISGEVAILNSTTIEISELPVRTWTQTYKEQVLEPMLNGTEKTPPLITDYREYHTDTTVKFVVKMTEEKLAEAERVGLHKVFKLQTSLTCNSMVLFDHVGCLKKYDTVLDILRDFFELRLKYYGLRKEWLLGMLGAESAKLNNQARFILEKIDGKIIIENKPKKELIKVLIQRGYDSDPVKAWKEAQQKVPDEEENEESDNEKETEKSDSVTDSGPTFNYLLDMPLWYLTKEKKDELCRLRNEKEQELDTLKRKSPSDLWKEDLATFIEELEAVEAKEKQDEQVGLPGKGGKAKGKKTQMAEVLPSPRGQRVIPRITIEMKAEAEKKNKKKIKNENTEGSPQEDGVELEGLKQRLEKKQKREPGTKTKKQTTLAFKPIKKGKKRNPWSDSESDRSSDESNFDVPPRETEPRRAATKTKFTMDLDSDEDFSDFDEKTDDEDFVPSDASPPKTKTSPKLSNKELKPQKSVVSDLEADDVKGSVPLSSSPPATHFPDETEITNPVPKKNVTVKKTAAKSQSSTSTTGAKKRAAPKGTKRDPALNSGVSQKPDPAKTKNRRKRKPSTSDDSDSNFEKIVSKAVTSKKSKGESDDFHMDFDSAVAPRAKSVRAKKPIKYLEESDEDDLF

levels of caspase 3 (caspase 3): high levels of caspase 3
inhibition at 100 µM (human Topo IIα): 8%
level of caspase 9 expression vs untreated (caspase 9; 10 nM PTX): significantly higher
SMILES: CC(=O)O[C@H]1C(=O)[C@@]2(C)[C@H]([C@H](OC(=O)c3ccccc3)[C@]3(O)C[C@H](OC(=O)[C@H](O)[C@@H](NC(=O)c4ccccc4)c4ccccc4)C(C)=C1C3(C)C)[C@]1(OC(C)=O)CO[C@@H]1C[C@@H]2O [PTX, paclitaxel]
rate of tubulin polymerization (tubulin): promoted
onset of tubulin polymerization (tubulin; tubulin alone 15 min): approximately 5 minutes
cell population at the G2/M phase (Hec50co cells; 5 nM PTX): approximately 46%
cell population at the G2/M phase (Hec50co cells; 10 nM PTX): ~70% and 69.5%
expression of caspase 9 vs untreated (caspase 9; 5 nM PTX): not statistically different from untreated cells
